As usually defined, the Ki is the dissociation constant of the complex between target and ligand, obtained from inhibition or displacement.

Each structure is given as a SMILES string. Where only a bound is given, the exact number is not on record here.

In patent publication US8906917B2, “Pyrimidine cyclohexyl glucocorticoid receptor modulators” (Corcept Therapeutics, Inc., priority 2011, dated 2014) one finds Ki data, which are given here for 33 compounds.

The target in experiment [1] is T1, Human Recombinant Glucocorticoid Receptor (Homo sapiens, UniProt P04150).
T1 construct: This GR was a full-length steroid hormone receptor; host or cells: recombinant baculovirus-infected insect cells
T1 sequence (P04150 1-777): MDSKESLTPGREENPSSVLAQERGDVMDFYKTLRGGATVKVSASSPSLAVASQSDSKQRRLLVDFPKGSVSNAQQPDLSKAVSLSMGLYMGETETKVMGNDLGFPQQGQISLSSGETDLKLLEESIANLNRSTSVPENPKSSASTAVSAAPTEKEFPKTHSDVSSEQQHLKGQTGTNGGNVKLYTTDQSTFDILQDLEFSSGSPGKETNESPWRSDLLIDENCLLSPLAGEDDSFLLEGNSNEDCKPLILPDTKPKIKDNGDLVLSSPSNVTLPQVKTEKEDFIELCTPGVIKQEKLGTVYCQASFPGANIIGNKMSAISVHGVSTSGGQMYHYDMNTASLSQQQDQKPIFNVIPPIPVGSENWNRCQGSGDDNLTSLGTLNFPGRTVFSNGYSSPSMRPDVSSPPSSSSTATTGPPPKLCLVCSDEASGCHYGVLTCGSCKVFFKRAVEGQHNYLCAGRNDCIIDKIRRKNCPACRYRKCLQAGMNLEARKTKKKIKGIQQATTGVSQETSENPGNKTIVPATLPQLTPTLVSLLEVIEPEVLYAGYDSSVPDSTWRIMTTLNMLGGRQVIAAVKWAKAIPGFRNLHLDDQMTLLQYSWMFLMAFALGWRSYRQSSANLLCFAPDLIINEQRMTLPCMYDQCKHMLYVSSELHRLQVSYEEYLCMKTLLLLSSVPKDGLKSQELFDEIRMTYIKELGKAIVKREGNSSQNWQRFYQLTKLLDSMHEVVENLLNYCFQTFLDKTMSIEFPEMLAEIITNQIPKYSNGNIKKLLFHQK
Description: Glucocorticoid receptor binding displacement assay with 3H-dexamethasone. The settings on record: displacement of 2.5 nM 3H-dexamethasone, 2.5 hrs at 4° C.; Ki from IC50 by Cheng-Prusoff; read-out: GR Binding Ki. The protocol: Binding protocol: Compounds were tested in a binding displacement assay using human recombinant glucocorticoid receptor with ^3H-dexamethasone as the ligand. The source of the receptor was recombinant baculovirus-infected insect cells. This GR was a full-length steroid hormone receptor likely to be associated with heat-shock and other endogenous proteins.
For the IC50 determinations, test compounds were tested at 6 concentrations in duplicate. Test compounds were diluted from 10 mM stock in 100% DMSO. The tested solutions were prepared at 2× final assay concentration in 2% DMSO/assay buffer.
All reagents and the assay plate were kept on ice during the addition of reagents. The reagents were added to wells of a v-bottomed polypropylene plate in the following order: 25 μl of 10 nM 3H-dexamethasone solution, 50 μl of TB/NSB/compound solution and 25 μl of 2 nM GR solution. After the additions, the incubation mixture was mixed and incubated for 2.5 hrs at 4° C.
Alter 2.5 hrs incubation, unbound counts were removed with dextran coated charcoal (DCC) as follows: 15 μl of DCC solution (10% DCC in assay buffer) was added to all wells and mixed (total volume 115 μl). The plate was centrifuged at 4000 rpm for 10 minutes at 4° C. 75 μl of the supernatants was carefully pipetted into an optiplate. 150 μl of scintillation cocktail were added (Microscint-40, Perkin Elmer). The plate was vigorously shaken for approx. 10 minutes and counted on Topcount.
The IC50 values were converted to Ki (the inhibition constant) using the Cheng-Prusoff equation.
Reagents: Assay buffer: 10 mM potassium phosphate buffer pH 7.6 containing 5 mM DTT, 10 mM sodium molybdate, 100 μM EDTA and 0.1% BSA.

In experiment [2] the target is T2, glucocorticoid receptors (endogenous) in SW1353/MMTV-5 cells (Homo sapiens, UniProt P04150).
T2 construct: contains endogenous glucocorticoid receptors; endogenous in cells; host or cells: SW1353/MMTV-5 (human chondrosarcoma, stably transfected with pMAMneo-Luc reporter)
T2 sequence (P04150 1-777): T1 sequence (P04150 1-777)
The experiment in a line: GR functional assay using SW1353/MMTV-5 cells (MMTV-GRE luciferase reporter). The class given is cell-based. On the procedure:
SW1353/MMTV-5 is an adherent human chondrosarcoma cell line that contains endogenous glucocorticoid receptors. It was transacted with a plasmid (pMAMneo-Luc) encoding firefly luciferase located behind a glucocorticoid-responsive element (GRE) derived from a viral promoter (long terminal repeat of mouse mammary tumor virus). A stable cell line SW1353/MMTV-5 was selected with geneticin, which was required to maintain this plasmid.
SW1353/MMTV-5 cells were distributed in 96-well plates and incubated in medium (without geneticin) for 24 hrs.
(In general: Reporter assays use an easily measured gene product as a stand-in for the process of interest.)

Regarding `CN(C)c1cccc(Cc2c(=O)[nH]c(=O)[nH]c2[C@H]2CC[C@H](c3ccccc3)CC2)n1` [Compound 3v], the Ki was 5 to 10 nM in experiment [1] and less than 50 nM in experiment [2].

In the case of `O=c1[nH]c(=O)c(Cc2ccccc2)c([C@H]2CC[C@@H](c3ccccc3)CC2)[nH]1` [Compound 3bb], the Ki in experiment [1] was greater than 10 nM; in experiment [2], greater than 100 nM.

As to `Cc1cccc(Cc2c(=O)n(C)c(=O)[nH]c2[C@H]2CC[C@H](c3ccccc3)CC2)c1` [Compound 13a, (E)-3-Methyl-5-(3-methylbenzyl)-6-(4-phenylcyclohexyl)-1H-pyrimidine-2,4-dione], the Ki in experiment [1] is 5 to 10 nM; in experiment [2] it was less than 50 nM.

Take `O=c1[nH]c(=O)c(Cc2ccccc2Cl)c([C@H]2CC[C@H](c3ccccc3)CC2)[nH]1` [Compound 3c]: the Ki in experiment [1] is less than 5 nM; in experiment [2], less than 50 nM.

Turning to `Cc1cccc(Cc2c(=O)[nH]c(=O)[nH]c2[C@H]2CC[C@H](c3ccccc3)CC2)c1` [Compound 3h, (E)-5-(3-Methylbenzyl)-6-(4-phenylcyclohexyl)-1H-pyrimidine-2,4-dione], the values for the Ki in experiment [1] and in experiment [2] were less than 5 nM and less than 50 nM, respectively.

Turning to `Cc1cccc(Cc2c(=O)[nH]c(=O)[nH]c2[C@H]2CC[C@H](c3ccccc3)CC2)n1` [Compound 3j], the inhibition constant Ki is greater than 10 nM in experiment [1] and 50 to 100 nM in experiment [2].

For the compound `Cn1c(=O)[nH]c([C@H]2CC[C@H](c3ccccc3)CC2)c(Cc2cccc(C(F)(F)F)c2)c1=O` [Compound 13d, (E)-3-Methyl-6-(4-phenyl-cyclohexyl)-5-(3-trifluoromethyl-benzyl)-1H-pyrimidine-2,4-dione], the values for the Ki in experiment [1] and in experiment [2] were 5 to 10 nM and greater than 100 nM, respectively.

Regarding `O=c1[nH]c(=O)c(Cc2ncccn2)c([C@H]2CC[C@H](c3ccccc3)CC2)[nH]1` [Compound 3k], the Ki in experiment [1] was greater than 10 nM; in experiment [2], greater than 100 nM.

Turning to `O=c1[nH]c(=O)c(Cc2cc(Cl)ccc2Cl)c([C@H]2CC[C@H](c3ccccc3)CC2)[nH]1` [Compound 3g], the Ki in experiment [1] is less than 5 nM; in experiment [2], less than 50 nM.

On to `O=c1[nH]c(=O)c(Cc2cccc(Cl)c2Cl)c([C@H]2CC[C@H](c3ccccc3)CC2)[nH]1` [Compound 3d], for which the Ki in experiment [1] is less than 5 nM; in experiment [2] it was less than 50 nM.

As for `O=c1[nH]c(=O)c(Cc2c(Cl)cccc2Cl)c([C@H]2CC[C@H](c3ccccc3)CC2)[nH]1` [Compound 3e], the inhibitory constant (Ki) in experiment [1] was in the range of 5 to 10 nM; in experiment [2], 50 to 100 nM.

For `O=c1[nH]c(=O)c(Cc2cccc(C(F)(F)F)n2)c([C@H]2CC[C@H](c3ccccc3)CC2)[nH]1` [Compound 3l], the inhibition constant Ki is 5 to 10 nM in experiment [1] and less than 50 nM in experiment [2].

For `O=c1[nH]c([C@H]2CC[C@H](c3ccccc3)CC2)c(Cc2cccc(C(F)(F)F)c2)c(=O)n1CCO` [Compound 13f, (E)-3-(2-Hydroxy-ethyl)-6-(4-phenyl-cyclohexyl)-5-(3-trifluoromethyl-benzyl)-1H-pyrimidine-2,4-dione], the results for the Ki in experiment [1] and in experiment [2] were greater than 10 nM and greater than 100 nM, respectively.

For the compound `O=c1[nH]c(=O)c(Cc2ccc(F)cc2Cl)c([C@H]2CC[C@H](c3ccccc3)CC2)[nH]1` [Compound 3x], the Ki in experiment [1] was greater than 10 nM; in experiment [2], less than 50 nM.

Take `CCc1ccccc1Cc1c(=O)[nH]c(=O)[nH]c1[C@H]1CC[C@H](c2ccccc2)CC1` [Compound 3s]: the Ki is 5 to 10 nM in experiment [1] and 50 to 100 nM in experiment [2].

`O=c1[nH]c(=O)c(Cc2ccc(Cl)cc2Cl)c([C@H]2CC[C@H](c3ccccc3)CC2)[nH]1` [Compound 3f]: the Ki is 5 to 10 nM in experiment [1] and less than 50 nM in experiment [2].

Take `Cn1c(=O)[nH]c([C@H]2CC[C@H](c3ccccc3)CC2)c(Cc2ccccc2)c1=O` [Compound 13h]: the inhibition constant (Ki) in experiment [1] is greater than 10 nM; in experiment [2], 50 to 100 nM.

As for `Cc1cccc(Cc2c(=O)n(CCN(C)C)c(=O)[nH]c2[C@H]2CC[C@H](c3ccccc3)CC2)c1` [Compound 13b], the Ki in experiment [1] was greater than 10 nM; in experiment [2] it was greater than 100 nM.

`Cc1ccnc(Cc2c(=O)[nH]c(=O)[nH]c2[C@H]2CC[C@H](c3ccccc3)CC2)c1` [Compound 3q]: the results for the inhibition constant Ki in experiment [1] and in experiment [2] were greater than 10 nM and less than 50 nM, respectively.

Consider `O=c1[nH]c(=O)c(Cc2ccc(F)cc2F)c([C@H]2CC[C@H](c3ccccc3)CC2)[nH]1` [Compound 3y], for which the Ki in experiment [1] was in the range of 5 to 10 nM; in experiment [2] it was 50 to 100 nM.

In the case of `O=c1[nH]c(=O)c(Cc2ccc(F)c(Cl)c2)c([C@H]2CC[C@H](c3ccccc3)CC2)[nH]1` [Compound 3aa], the Ki in experiment [1] is greater than 10 nM; in experiment [2] it was less than 50 nM.

With `Cc1cccc(Cc2c(C3=CCC(c4ccccc4)CC3)[nH]c(=O)[nH]c2=O)c1` (stereo not drawn) [Compound 2b], the Ki in experiment [1] lay within 5 to 10 nM; in experiment [2], 50 to 100 nM.

For `Cc1cc(Cc2c(=O)[nH]c(=O)[nH]c2[C@H]2CC[C@H](c3ccccc3)CC2)ccn1` [Compound 3n], the Ki in experiment [1] was greater than 10 nM; in experiment [2], greater than 100 nM.

With `O=c1[nH]c(=O)c(Cc2cccc(F)c2F)c([C@H]2CC[C@H](c3ccccc3)CC2)[nH]1` [Compound 3z], the Ki in experiment [1] is less than 5 nM; in experiment [2], less than 50 nM.

For `O=c1[nH]c(=O)c(Cc2ccccc2)c([C@H]2CC[C@H](c3ccccc3)CC2)[nH]1` [Compound 3a, (E)-5-Benzyl-6-(4-phenylcyclohexyl)-1H-pyrimidine-2,4-dione], the Ki in experiment [1] was less than 5 nM; in experiment [2], less than 50 nM.

As for `Nc1cccc(Cc2c(=O)[nH]c(=O)[nH]c2[C@H]2CC[C@H](c3ccccc3)CC2)n1` [Compound 3cc], the Ki in experiment [1] is greater than 10 nM; in experiment [2], greater than 100 nM.

As to `O=c1[nH]c(=O)c(Cc2cccc(C(F)(F)F)c2)c([C@H]2CC[C@H](c3ccccc3)CC2)[nH]1` [Compound 3b, (E)-6-(4-Phenylcyclohexyl)-5-(3-trifluoromethylbenzyl)-1H-pyrimidine-2,4-dione], the values for the Ki in experiment [1] and in experiment [2] were 5 to 10 nM and less than 50 nM, respectively.

Regarding `O=c1[nH]c(=O)c(Cc2ncccc2Cl)c([C@H]2CC[C@H](c3ccccc3)CC2)[nH]1` [Compound 3m], the Ki was greater than 10 nM in experiment [1] and greater than 100 nM in experiment [2].

Regarding `Cc1cccc(Cc2c(=O)[nH]c(=S)[nH]c2[C@H]2CC[C@H](c3ccccc3)CC2)c1` [Compound 12g, (E)-6-(4-Phenylcyclohexyl)-2-thioxo-5-(3-methylbenzyl)-2,3-dihydro-1H-pyrimidin-4-one], the Ki was greater than 10 nM in experiment [1] and greater than 100 nM in experiment [2].

`O=c1[nH]c(=O)c(Cc2cc(C(F)(F)F)ccn2)c([C@H]2CC[C@H](c3ccccc3)CC2)[nH]1` [Compound 3r]: the Ki in experiment [1] is greater than 10 nM; in experiment [2] it was 50 to 100 nM.

As for `Cc1ccccc1Cc1c(C2=CCC(c3ccccc3)CC2)[nH]c(=O)[nH]c1=O` (stereo not drawn) [Compound 2d], the Ki in experiment [1] is greater than 10 nM; in experiment [2], greater than 100 nM.

With `Cc1csc(Cc2c(=O)[nH]c(=O)[nH]c2[C@H]2CC[C@H](c3ccccc3)CC2)n1` [Compound 3t], the Ki in experiment [1] is greater than 10 nM; in experiment [2], greater than 100 nM.

Turning to `O=c1[nH]c(C2=CCC(c3ccccc3)CC2)c(Cc2ccccc2)c(=O)[nH]1` (stereo not drawn) [Compound 2a, 5-Benzyl-6-(4-phenylcyclohex-1-enyl)-1H-pyrimidine-2,4-dione], the Ki in experiment [1] was greater than 10 nM; in experiment [2], greater than 100 nM.
